Tested on in one test: not listed separately
The experiment in a line: DRUGMATRIX: Glutamate, AMPA radioligand binding (ligand: [3H] AMPA). Format: cell membranes, Rattus norvegicus, Wistar, Cerebral cortex, Membrane. The settings on record: Not Active = under 50% inhibition at 10 µM.
Chain of C-C chemokine receptor type 2 (P41597 whole entry): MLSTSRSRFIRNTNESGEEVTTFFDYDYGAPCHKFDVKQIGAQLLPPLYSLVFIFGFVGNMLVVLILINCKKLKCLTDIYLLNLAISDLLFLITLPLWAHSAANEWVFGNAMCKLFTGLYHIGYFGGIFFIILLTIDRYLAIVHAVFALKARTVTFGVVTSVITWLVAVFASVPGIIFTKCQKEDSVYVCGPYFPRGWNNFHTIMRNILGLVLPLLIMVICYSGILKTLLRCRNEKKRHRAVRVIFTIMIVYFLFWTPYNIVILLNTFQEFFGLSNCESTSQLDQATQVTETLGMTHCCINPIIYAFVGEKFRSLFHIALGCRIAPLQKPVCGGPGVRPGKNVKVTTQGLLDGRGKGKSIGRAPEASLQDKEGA
Chain of Estrogen receptor beta (Q92731 whole entry): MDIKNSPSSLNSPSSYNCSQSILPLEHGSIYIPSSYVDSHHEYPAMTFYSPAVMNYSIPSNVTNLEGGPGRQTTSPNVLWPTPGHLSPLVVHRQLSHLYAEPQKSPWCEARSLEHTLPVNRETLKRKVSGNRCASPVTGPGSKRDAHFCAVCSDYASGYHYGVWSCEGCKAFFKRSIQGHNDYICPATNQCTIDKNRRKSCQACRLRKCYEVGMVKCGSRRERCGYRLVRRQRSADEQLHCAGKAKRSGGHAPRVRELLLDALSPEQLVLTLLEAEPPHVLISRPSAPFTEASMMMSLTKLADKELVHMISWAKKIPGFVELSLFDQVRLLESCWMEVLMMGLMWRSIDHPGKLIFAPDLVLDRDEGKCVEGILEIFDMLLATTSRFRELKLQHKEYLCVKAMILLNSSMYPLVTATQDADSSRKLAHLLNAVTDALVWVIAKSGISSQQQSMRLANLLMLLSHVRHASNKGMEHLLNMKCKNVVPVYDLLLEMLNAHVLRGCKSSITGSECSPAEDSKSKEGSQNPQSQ
In the case of `O=C1OCCN1/N=C/c1ccc([N+](=O)[O-])o1` [FURAZOLIDONE], the IC50 entry was “Not Active” and the Ki entry was “Not Active”.
With `CC(=O)OCC(=O)[C@@]1(OC(C)=O)[C@@H](C)C[C@H]2[C@@H]3C[C@H](F)C4=CC(=O)C=C[C@]4(C)[C@@]3(F)[C@@H](O)C[C@@]21C` [DIFLORASONE DIACETATE], the IC50 entry is listed as “Not Active” and the Ki entry is listed as “Not Active”.

Tested on in a further test: not listed separately
The experiment in a line: DRUGMATRIX: Phorbol Ester radioligand binding (ligand: [3H] PDBu). It counts as cell membranes, Mus musculus, ICR, Brain, Membrane. The settings on record: Not Active = under 50% inhibition at 10 µM.
`O=C1OCCN1/N=C/c1ccc([N+](=O)[O-])o1` [FURAZOLIDONE]: the IC50 result is “Not Active” and the Ki result is “Not Active”.
`CC(=O)OCC(=O)[C@@]1(OC(C)=O)[C@@H](C)C[C@H]2[C@@H]3C[C@H](F)C4=CC(=O)C=C[C@]4(C)[C@@]3(F)[C@@H](O)C[C@@]21C` [DIFLORASONE DIACETATE]: the IC50 result is listed as “Not Active” and the Ki result is listed as “Not Active”.

The next test addresses Estrogen receptor beta (Homo sapiens, UniProt Q92731).
Experiment: not given
The settings on record: sf9.
`O=C1OCCN1/N=C/c1ccc([N+](=O)[O-])o1` [FURAZOLIDONE]: the IC50 result is given as “Not Active”.
Same read-out and setting: to `CC(=O)OCC(=O)[C@@]1(OC(C)=O)[C@@H](C)C[C@H]2[C@@H]3C[C@H](F)C4=CC(=O)C=C[C@]4(C)[C@@]3(F)[C@@H](O)C[C@@]21C` [DIFLORASONE DIACETATE] belongs “Not Active”.

The next test concerns the target C-C chemokine receptor type 2 (Homo sapiens, UniProt P41597). Note: in other assays of this panel Not Active means under 50% inhibition at 10 µM.
Experiment: not given
Format: cell membranes, CHO-K1, Membrane. The settings on record: cho-k1.
On to `O=C1OCCN1/N=C/c1ccc([N+](=O)[O-])o1` [FURAZOLIDONE], for which the IC50 entry was “Not Active”.
As to `CC(=O)OCC(=O)[C@@]1(OC(C)=O)[C@@H](C)C[C@H]2[C@@H]3C[C@H](F)C4=CC(=O)C=C[C@]4(C)[C@@]3(F)[C@@H](O)C[C@@]21C` [DIFLORASONE DIACETATE], the IC50 result is listed as “Not Active”.

Another test concerns the target T1, Neuropeptide Y receptor type 1 (Homo sapiens, UniProt P25929). Note: in other assays of this panel Not Active means under 50% inhibition at 10 µM.
T1 sequence (P25929 whole entry): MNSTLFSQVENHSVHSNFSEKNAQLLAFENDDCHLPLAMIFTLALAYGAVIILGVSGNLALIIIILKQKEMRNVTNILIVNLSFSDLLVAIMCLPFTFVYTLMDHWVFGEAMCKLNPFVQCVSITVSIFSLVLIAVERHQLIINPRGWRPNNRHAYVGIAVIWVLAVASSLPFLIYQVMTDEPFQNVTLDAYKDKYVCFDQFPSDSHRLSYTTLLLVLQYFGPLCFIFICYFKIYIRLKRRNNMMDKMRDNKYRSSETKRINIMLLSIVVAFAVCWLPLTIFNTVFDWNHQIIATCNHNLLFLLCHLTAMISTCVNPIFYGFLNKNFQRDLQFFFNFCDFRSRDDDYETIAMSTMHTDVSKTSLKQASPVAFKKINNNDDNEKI
Experiment: not given
It counts as cell membranes, Membrane. The settings on record: sk-n-mc.
Turning to `O=C1OCCN1/N=C/c1ccc([N+](=O)[O-])o1` [FURAZOLIDONE], the IC50 entry is “Not Active”.
For `CC(=O)OCC(=O)[C@@]1(OC(C)=O)[C@@H](C)C[C@H]2[C@@H]3C[C@H](F)C4=CC(=O)C=C[C@]4(C)[C@@]3(F)[C@@H](O)C[C@@]21C` [DIFLORASONE DIACETATE], the IC50 result is “Not Active”.

In another test the target is T2, Neutrophil elastase (Homo sapiens, UniProt P08246).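 Note: inhibition of neutrophil elastase enzyme activity, measured with a p-nitroanilide-linked peptide substrate; in other assays of this panel Not Active means under 50% inhibition at 10 µM.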
T2 sequence (P08246 whole entry): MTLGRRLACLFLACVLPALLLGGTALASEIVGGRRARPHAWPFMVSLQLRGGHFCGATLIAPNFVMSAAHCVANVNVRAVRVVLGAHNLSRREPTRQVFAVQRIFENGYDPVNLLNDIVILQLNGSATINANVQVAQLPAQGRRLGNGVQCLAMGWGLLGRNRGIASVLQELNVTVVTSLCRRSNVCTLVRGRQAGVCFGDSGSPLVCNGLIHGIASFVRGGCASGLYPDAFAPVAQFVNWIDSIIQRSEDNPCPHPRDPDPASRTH
Experiment: not given
Format: tissue-based.
Details: not given
For `O=C1OCCN1/N=C/c1ccc([N+](=O)[O-])o1` [FURAZOLIDONE], the IC50 entry is reported as “Not Active”.
With `CC(=O)OCC(=O)[C@@]1(OC(C)=O)[C@@H](C)C[C@H]2[C@@H]3C[C@H](F)C4=CC(=O)C=C[C@]4(C)[C@@]3(F)[C@@H](O)C[C@@]21C` [DIFLORASONE DIACETATE], the IC50 result was “Not Active”.

The next test concerns the target T3, C-C chemokine receptor type 4 (Homo sapiens, UniProt P51679). Note: in other assays of this panel Not Active means under 50% inhibition at 10 µM.
T3 sequence (P51679 whole entry): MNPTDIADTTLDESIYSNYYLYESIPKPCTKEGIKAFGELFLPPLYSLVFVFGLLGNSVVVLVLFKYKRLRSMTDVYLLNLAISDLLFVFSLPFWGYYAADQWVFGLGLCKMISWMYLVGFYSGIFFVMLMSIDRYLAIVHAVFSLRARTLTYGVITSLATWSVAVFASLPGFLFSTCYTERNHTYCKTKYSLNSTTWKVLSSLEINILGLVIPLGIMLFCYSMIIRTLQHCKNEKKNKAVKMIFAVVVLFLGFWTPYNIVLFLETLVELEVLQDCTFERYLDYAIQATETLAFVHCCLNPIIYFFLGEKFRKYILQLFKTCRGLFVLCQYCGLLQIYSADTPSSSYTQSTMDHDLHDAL
Experiment: not given
Format: cell membranes, Membrane. The following applies: chem-1.
In the case of `O=C1OCCN1/N=C/c1ccc([N+](=O)[O-])o1` [FURAZOLIDONE], the IC50 entry is “Not Active”.
Still for that read-out and setting: to `CC(=O)OCC(=O)[C@@]1(OC(C)=O)[C@@H](C)C[C@H]2[C@@H]3C[C@H](F)C4=CC(=O)C=C[C@]4(C)[C@@]3(F)[C@@H](O)C[C@@]21C` [DIFLORASONE DIACETATE] belongs “Not Active”.

The target in the next test is cGMP-specific 3',5'-cyclic phosphodiesterase (Homo sapiens, UniProt O76074). Nature of the test: DRUGMATRIX: Phosphodiesterase PDE5 enzyme inhibition (substrate: [3H]cGMP + cGMP). It counts as tissue-based, Platelet. The following applies: platelet; Not Active = under 50% inhibition at 10 µM.
Regarding `O=C1OCCN1/N=C/c1ccc([N+](=O)[O-])o1` [FURAZOLIDONE], the IC50 entry is reported as “Not Active”.
On the same count and under the same terms, for `CC(=O)OCC(=O)[C@@]1(OC(C)=O)[C@@H](C)C[C@H]2[C@@H]3C[C@H](F)C4=CC(=O)C=C[C@]4(C)[C@@]3(F)[C@@H](O)C[C@@]21C` [DIFLORASONE DIACETATE] the value was “Not Active”.

Tested on in a further test: not listed separately
Nature of the test: DRUGMATRIX: ATPase, Na+/K+ enzyme inhibition (substrate: ATP). It counts as tissue-based, Sus scrofa, Heart. The settings on record: Not Active = under 50% inhibition at 10 µM.
Regarding `O=C1OCCN1/N=C/c1ccc([N+](=O)[O-])o1` [FURAZOLIDONE], the IC50 result is reported as “Not Active” and the Ki result was “Not Active”.
With `CC(=O)OCC(=O)[C@@]1(OC(C)=O)[C@@H](C)C[C@H]2[C@@H]3C[C@H](F)C4=CC(=O)C=C[C@]4(C)[C@@]3(F)[C@@H](O)C[C@@]21C` [DIFLORASONE DIACETATE], the IC50 entry is listed as “Not Active” and the Ki entry was “Not Active”.

The target of the next test is T4, Leukotriene C4 synthase (Cavia porcellus, UniProt A6XA80).
T4 sequence (A6XA80 whole entry): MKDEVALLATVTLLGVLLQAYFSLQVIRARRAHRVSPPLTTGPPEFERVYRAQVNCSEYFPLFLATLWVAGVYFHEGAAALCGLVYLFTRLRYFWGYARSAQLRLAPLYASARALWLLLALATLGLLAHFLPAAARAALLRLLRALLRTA
Nature of the test: biochemical. It counts as tissue-based, Lung.
Details: not given
As to `O=C1OCCN1/N=C/c1ccc([N+](=O)[O-])o1` [FURAZOLIDONE], the IC50 result is “Not Active”.
Take `CC(=O)OCC(=O)[C@@]1(OC(C)=O)[C@@H](C)C[C@H]2[C@@H]3C[C@H](F)C4=CC(=O)C=C[C@]4(C)[C@@]3(F)[C@@H](O)C[C@@]21C` [DIFLORASONE DIACETATE]: the IC50 entry is given as “Not Active”.

Tested on in another test: not listed separately
The experiment in a line: DRUGMATRIX: Glutamate, Kainate radioligand binding (ligand: [3H] Kainic acid). Format: cell membranes, Rattus norvegicus, Wistar, Brain, Membrane. The settings on record: Not Active = under 50% inhibition at 10 µM.
On to `O=C1OCCN1/N=C/c1ccc([N+](=O)[O-])o1` [FURAZOLIDONE], for which the IC50 entry is on record as “Not Active” and the Ki result is on record as “Not Active”.
As to `CC(=O)OCC(=O)[C@@]1(OC(C)=O)[C@@H](C)C[C@H]2[C@@H]3C[C@H](F)C4=CC(=O)C=C[C@]4(C)[C@@]3(F)[C@@H](O)C[C@@]21C` [DIFLORASONE DIACETATE], the IC50 entry is reported as “Not Active” and the Ki entry is on record as “Not Active”.

A further test addresses T5, Nitric oxide synthase, inducible (Mus musculus, UniProt P29477).
T5 sequence (P29477 whole entry): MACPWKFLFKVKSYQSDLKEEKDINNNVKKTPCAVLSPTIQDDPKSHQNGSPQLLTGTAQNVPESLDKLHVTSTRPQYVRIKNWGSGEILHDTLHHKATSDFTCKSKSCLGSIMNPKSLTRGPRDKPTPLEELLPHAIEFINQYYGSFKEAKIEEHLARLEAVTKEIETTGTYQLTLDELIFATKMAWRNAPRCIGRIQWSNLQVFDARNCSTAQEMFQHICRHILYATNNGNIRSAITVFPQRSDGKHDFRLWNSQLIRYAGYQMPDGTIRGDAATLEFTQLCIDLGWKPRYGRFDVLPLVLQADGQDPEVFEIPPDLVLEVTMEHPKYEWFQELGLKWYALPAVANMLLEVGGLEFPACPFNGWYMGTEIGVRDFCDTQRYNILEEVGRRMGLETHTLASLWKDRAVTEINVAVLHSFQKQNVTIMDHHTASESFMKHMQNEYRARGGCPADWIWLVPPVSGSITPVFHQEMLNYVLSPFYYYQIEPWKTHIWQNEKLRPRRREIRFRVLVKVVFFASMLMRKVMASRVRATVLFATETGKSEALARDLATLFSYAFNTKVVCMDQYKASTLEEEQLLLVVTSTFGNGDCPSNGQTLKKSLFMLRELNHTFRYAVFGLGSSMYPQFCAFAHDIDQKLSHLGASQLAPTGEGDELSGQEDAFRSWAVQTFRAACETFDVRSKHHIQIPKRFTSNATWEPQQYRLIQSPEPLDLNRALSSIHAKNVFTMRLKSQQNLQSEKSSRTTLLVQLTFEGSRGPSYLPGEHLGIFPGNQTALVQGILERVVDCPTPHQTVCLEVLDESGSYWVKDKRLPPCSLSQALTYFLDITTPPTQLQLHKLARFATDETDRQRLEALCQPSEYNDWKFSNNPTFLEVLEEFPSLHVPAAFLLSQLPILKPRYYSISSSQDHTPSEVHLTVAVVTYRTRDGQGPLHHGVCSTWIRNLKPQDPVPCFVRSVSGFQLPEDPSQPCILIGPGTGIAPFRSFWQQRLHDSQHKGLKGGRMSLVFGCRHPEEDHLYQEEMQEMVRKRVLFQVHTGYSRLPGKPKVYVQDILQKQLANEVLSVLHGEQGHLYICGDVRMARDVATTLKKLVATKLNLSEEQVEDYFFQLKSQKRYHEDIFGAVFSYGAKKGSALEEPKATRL
Experiment: not given
Details: not given
Set-up: species or system Escherichia coli.
As to `O=C1OCCN1/N=C/c1ccc([N+](=O)[O-])o1` [FURAZOLIDONE], the IC50 result was “Not Active”.
Consider `CC(=O)OCC(=O)[C@@]1(OC(C)=O)[C@@H](C)C[C@H]2[C@@H]3C[C@H](F)C4=CC(=O)C=C[C@]4(C)[C@@]3(F)[C@@H](O)C[C@@]21C` [DIFLORASONE DIACETATE], for which the IC50 entry is given as “Not Active”.

The target in a further test is Insulin receptor (Rattus norvegicus, UniProt P15127). Note: in other assays of this panel Not Active means under 50% inhibition at 10 µM.
Chain of Insulin receptor (P15127 27-759 limits assumed): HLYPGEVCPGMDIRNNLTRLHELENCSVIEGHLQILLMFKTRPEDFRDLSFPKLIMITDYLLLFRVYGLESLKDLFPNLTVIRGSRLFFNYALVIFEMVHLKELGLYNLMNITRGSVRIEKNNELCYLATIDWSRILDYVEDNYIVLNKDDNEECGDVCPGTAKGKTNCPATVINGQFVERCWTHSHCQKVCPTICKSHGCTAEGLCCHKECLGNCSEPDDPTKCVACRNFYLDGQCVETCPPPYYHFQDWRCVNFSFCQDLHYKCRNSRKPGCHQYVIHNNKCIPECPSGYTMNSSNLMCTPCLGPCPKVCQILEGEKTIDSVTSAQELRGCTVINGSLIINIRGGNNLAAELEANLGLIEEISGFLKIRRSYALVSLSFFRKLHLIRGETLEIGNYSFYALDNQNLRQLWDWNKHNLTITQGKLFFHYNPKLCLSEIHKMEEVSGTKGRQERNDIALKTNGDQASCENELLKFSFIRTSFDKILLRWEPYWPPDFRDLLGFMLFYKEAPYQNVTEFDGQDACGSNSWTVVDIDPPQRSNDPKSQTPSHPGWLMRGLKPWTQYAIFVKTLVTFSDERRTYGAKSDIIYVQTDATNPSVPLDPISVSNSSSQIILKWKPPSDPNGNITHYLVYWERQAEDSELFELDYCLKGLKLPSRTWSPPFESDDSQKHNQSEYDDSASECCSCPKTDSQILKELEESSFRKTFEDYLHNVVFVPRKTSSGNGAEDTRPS
Chain of Insulin receptor (P15127 764-1383 limits assumed): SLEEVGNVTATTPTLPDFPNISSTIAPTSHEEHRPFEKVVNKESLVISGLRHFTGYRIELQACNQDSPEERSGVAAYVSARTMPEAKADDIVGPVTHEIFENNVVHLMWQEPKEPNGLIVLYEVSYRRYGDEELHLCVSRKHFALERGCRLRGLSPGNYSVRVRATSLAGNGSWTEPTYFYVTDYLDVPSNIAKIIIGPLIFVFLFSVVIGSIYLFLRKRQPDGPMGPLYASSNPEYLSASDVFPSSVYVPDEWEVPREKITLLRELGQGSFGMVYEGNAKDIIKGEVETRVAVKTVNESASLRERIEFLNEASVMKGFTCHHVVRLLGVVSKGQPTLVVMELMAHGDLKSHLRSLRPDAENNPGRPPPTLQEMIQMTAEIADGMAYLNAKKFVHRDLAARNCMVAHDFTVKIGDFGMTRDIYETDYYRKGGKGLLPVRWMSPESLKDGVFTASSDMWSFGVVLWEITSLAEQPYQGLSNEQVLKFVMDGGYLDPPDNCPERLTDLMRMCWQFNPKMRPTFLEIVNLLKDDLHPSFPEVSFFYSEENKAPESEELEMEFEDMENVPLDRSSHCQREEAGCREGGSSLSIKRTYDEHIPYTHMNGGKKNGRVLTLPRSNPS
Experiment: not given
Format: cell membranes, Wistar, Liver, Membrane.
Details: not given
Take `O=C1OCCN1/N=C/c1ccc([N+](=O)[O-])o1` [FURAZOLIDONE]: the IC50 result was “Not Active”.
On the same count and under the same terms, for `CC(=O)OCC(=O)[C@@]1(OC(C)=O)[C@@H](C)C[C@H]2[C@@H]3C[C@H](F)C4=CC(=O)C=C[C@]4(C)[C@@]3(F)[C@@H](O)C[C@@]21C` [DIFLORASONE DIACETATE] the value was “Not Active”.

The values above are taken from ChEMBL document CHEMBL1909046, “DrugMatrix in vitro pharmacology data”.
